Test results from patent publication US7232805B2, “Cobalamin conjugates for anti-tumor therapy” (Inflabloc Pharmaceuticals, Inc., priority 2003, dated 2007).

Tests used:
[1] = test system: MCF-7 cells; assay: CellTiter-Glo Luminescent Cell Viability Assay, MCF-7 cells; type: cell-based, human; conditions: MCF-7, 96 hours, 100 μM down to 10 nM, FIG. 6a
Source text: (§1) FIGS. 6a-6d depict the results of in vitro assays of the conjugate against four cell lines. FIG. 6A is a chart depicting the results of the conjugate against MCF-7 cells, cells derived from a human breast cancer cell line. FIG. 6B is a chart depicting the results of the conjugate against SK-BR-3 cells, cells derived from a human breast adenocarcinoma cell line. FIG. 6C is a chart depicting the results of the conjugate against HL-60 cells, cells derived from a human promyelocytic leukemia cell line. FIG. 6D is a chart depicting the results of the conjugate against SK-N-MC cells, cells derived from a human brain neuroblastoma (neuroepithelioma) cell line. […]
(§2) After 96 hours, the effects of doxorubicin and B12-S-doxorubicin on cell viability were determined using an assay from Promega. The CellTiter-Glo™ Luminescent Cell Viability Assay quantitates the ATP present in a culture, which correlates with metabolically active cells. Luminescence, which is dependent on ATP concentration, was measured for each individual well on a Wallac MicroBeta® JET Liquid Scintillation and Luminescence Counter. The average luminescence value of the three wells containing medium alone was subtracted from the raw data values to give corrected values. […] The three corrected values for wells dosed with the same concentration of compound were averaged and the standard deviation calculated. […]

[2] = test system: SK-BR-3 cells; assay: CellTiter-Glo Luminescent Cell Viability Assay, SK-BR-3 cells; type: cell-based, human; conditions: SK-BR-3, 96 hours, 100 μM down to 10 nM, FIG. 6b
Source text: as §1, §2

[3] = test system: HL-60 cells; assay: CellTiter-Glo Luminescent Cell Viability Assay, HL-60 cells; type: cell-based, human; conditions: HL-60, 96 hours, 100 μM down to 10 nM, FIG. 6c
Source text: as §1, §2

[4] = test system: MX-1 human breast carcinoma xenograft; assay: tumor growth delay, MX-1 xenograft, single-cycle dosing (Example 3)
Procedure: Test articles were administered on the day of pair matching, Day 1.
The upper limit of acceptability is 20% weight loss.

[5] = maximum tolerated dose of the conjugate in nude mice (Example 10); type: in vivo, Charles River nude (athymic) mice; conditions: 5 consecutive daily intravenous doses, FIG. 10
Procedure: The following procedure was used to investigate the maximum tolerated dose of the vitamin B12-doxorubicin conjugate in Charles River nude (athymic) mice. Five groups of 5 mice each were weighed and then administered the first of 5 consecutive daily doses of intravenous conjugate; dose levels were 8, 16, 32, 48 and 54 mg/kg/day. Overall toxicity was assessed by weighing the mice twice weekly starting on Day 1 of dosing (the initial dose) and by frequent inspection for clinical signs and symptoms. The NCI definition of the MTD for cancer chemotherapy in mice was adopted for this study. The desirable MTD is that dose of drug mediating a maximum mean body weight loss of ≦10% and no toxic deaths. The upper limit of the MTD is that dose causing a mean 20% weight loss in the group, and one death per 10 animals. After dosing once a day for 5 consecutive days, animals were monitored for another 5 days to address recurrent and latent toxicities.

[6] = systemic toxicity / MTD of free doxorubicin versus conjugate on a molar basis (separate study); type: in vivo, mice
[7] = 32 mg/kg/day x 5 days intravenous
[8] = 32 mg/kg/day x 5 days intravenous, group of 10 mice

Compound: COc1cccc2c1C(=O)c1c(O)c3c(c(O)c1C2=O)C[C@@](O)(C(=O)CO)C[C@@H]3O[C@H]1C[C@H](NC(=O)OCc2ccc(NC(=O)[C@H](CCCCN)NC(=O)[C@H](Cc3ccccc3)NC(=O)CCCCCNC(=O)OC[C@H]3O[C@H](n4cnc5cc(C)c(C)cc54)[C@H](O)[C@@H]3OP(=O)(O)O[C@H](C)CNC(=O)CC[C@@]3(C)C4=C(C)C5=NC(=CC6=NC(=C(C)C7=N[C@@](C)([C@H](N4)[C@@H]3CC(N)=O)[C@@](C)(CC(N)=O)[C@@H]7CCC(N)=O)[C@@](C)(CC(N)=O)[C@@H]6CCC(N)=O)C(C)(C)[C@@H]5CCC(N)=O)cc2)[C@H](O)[C@H](C)O1 [conjugate 13, B12-5′-OCONH(CH2)5CO-Phe-Lys-PABC-Dox]
- cell viability versus free doxorubicin [1]: same effectiveness as doxorubicin and is slightly less potent than doxorubicin
- cell viability versus free doxorubicin [2]: same effectiveness as doxorubicin and is slightly less potent than doxorubicin
- cell viability versus free doxorubicin [3]: same effectiveness as doxorubicin and is slightly less potent than doxorubicin
- median time to endpoint (tumor 1.5 gm) [4, 7]: 62.1 days
- time to endpoint longer than control [4, 7]: 44.3 days
- treatment or nontreatment related deaths [4, 7]: no treatment or nontreatment related deaths
- maximum body weight loss ([4]; 32 mg/kg/day x 5 days intravenous, day 9): −8.4%
- long-term, tumor-free survivors [4, 8]: 4 mice
- mice that developed complete regression [4, 8]: 6 mice
- time to endpoint longer than the Doxorubicin active control ([4]; 32 mg/kg/day x 5 days intravenous, Doxorubicin 3 mg/kg/day): 22.6 days
- toxicity ([4]; 64 mg/kg/day x 5 days intravenous, group terminated on Day 4): severe toxicity
- efficacy compared with the free drug (tumor size versus days) ([4]; FIG. 9): much greater efficacy than the free drug
- change in tumor size ([4]; at about 2-4 weeks after administration, FIG. 9): substantial decrease in tumor size
- additional toxicity (body weight) from increased amount of doxorubicin in the conjugate ([4]; single-cycle study, FIG. 12a, 2.3-fold increase of doxorubicin): not associated with additional toxicity
- toxicity versus dose, as measured by percent mean body weight loss [5]: clear trend of increasing toxicity with increasing dose
- MTD ([5]; mouse, in vivo, percent mean body weight loss, read-out: dose at which the conjugate was well tolerated (MTD study)): ≤ 48 mg/kg/day
- lethality at the same high molar dose ([6]; free doxorubicin at the same high molar dose as the conjugate): not by the doxorubicin conjugate
- dose higher than that of free doxorubicin on a molar basis, still with less systemic toxicity ([6]; molar basis): at least 2.3 time
